ChEMBL document CHEMBL1127258, “Structurally simplified squalestatins: monocyclic 1,3-dioxane analogues” (Bioorg Med Chem Lett, 1994)

The compounds below were run against T1, Squalene synthase (Rattus norvegicus, UniProt Q02769) (assay: In vitro inhibitory concentration against squalene synthase from male rat liver microsomes).
T1 sequence (Q02769 whole entry): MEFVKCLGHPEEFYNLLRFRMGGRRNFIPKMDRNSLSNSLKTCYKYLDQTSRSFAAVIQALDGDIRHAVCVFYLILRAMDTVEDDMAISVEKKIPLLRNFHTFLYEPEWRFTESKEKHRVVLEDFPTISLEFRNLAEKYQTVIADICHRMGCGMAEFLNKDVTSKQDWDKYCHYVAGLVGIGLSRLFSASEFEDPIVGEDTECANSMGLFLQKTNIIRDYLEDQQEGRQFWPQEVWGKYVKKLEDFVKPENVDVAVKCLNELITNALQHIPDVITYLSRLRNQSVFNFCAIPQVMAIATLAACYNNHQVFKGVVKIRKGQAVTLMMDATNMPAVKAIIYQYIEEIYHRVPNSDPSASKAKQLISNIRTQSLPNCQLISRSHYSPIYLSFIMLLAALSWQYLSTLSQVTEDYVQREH
Type: tissue-based

Compound	IC50
C=C(CC[C@]1(C(N)=O)O[C@H](C(=O)O)[C@@](O)(C(=O)O)[C@](COC(=O)/C=C/[C@@H](C)C[C@@H](C)CC)(C(=O)O)O1)[C@@H](OC(C)=O)[C@H](C)Cc1ccccc1	11 nM
C=C(CC[C@]1(C(N)=O)O[C@H](C(=O)O)[C@@](O)(C(=O)O)[C@](COC(C)=O)(C(=O)O)O1)[C@@H](OC(C)=O)[C@H](C)Cc1ccccc1	270 nM

Results, then the compound that gave them:

IC50	Compound
57 nM	C=C(CC[C@@]12CC[C@@](C(=O)O)(O1)[C@](O)(C(=O)O)[C@@H](C(=O)O)O2)[C@@H](OC(C)=O)[C@H](C)Cc1ccccc1
39 nM	C=C(CC[C@]12O[C@H](C(=O)O)[C@@](O)(C(=O)O)[C@](C(=O)O)(O1)C(O)OC2O)[C@@H](OC(C)=O)[C@H](C)Cc1ccccc1 (stereo not given in full)
200 nM	C=C(CC[C@@]12O[C@H](C(=O)O)[C@@](O)(C(=O)O)[C@@](C(=O)O)(COC1=O)O2)[C@@H](OC(C)=O)[C@H](C)Cc1ccccc1
